Like-named read-outs stand apart in the source and are kept apart here. Each block holds one molecule with its values, some of them ahead of it.
What was measured:
SAT1 [1] = target: SAT1 (Homo sapiens, UniProt P21673)
Description: FIG. 17C SAT1 induction was confirmed by Western blot analysis of the protein sample. (mean=+SD, n=3).
Next, SAT1 activity was assessed in U251 cells via production of acetylated-amantadine after treatment with the SAT1 substrate amantadine, or the production of acetylated-rimantadine after treatment with the SAT1 substrate rimantadine.

BBB = test: Bidirectional BBB permeability in the BBB microfluidic model
Description: Permeability coefficients are the mean±SD of 3 microfluidic units.
Finally, the bidirectional BBB permeability of amantadine and rimantadine, as well as their metabolites, was evaluated in the previously described model.

SAT1 [2] = test: SAT1 induction in U251 cells (mRNA and Western blot); type: cell-based, human; details: 10 μM, 24 and 48 hours
Description: SAT1 expression was next evaluated in U251 cells.

NAT1 = NAT1 gene and protein expression in U251 cells; type: cell-based, human; details: 10 μM, 24 h and 48 h
NAT2 = NAT2 gene and protein expression in U251 cells; type: cell-based, human; details: 10 μM, 24 h and 48 h
U251 glioblastoma cells = test: Cell viability/proliferation MTT assay, U251; type: cell-based, human; details: combined with SAT1 knockdown, DOX 0.1 μM, TOPO 0.2 μM
Description: (§1) Cells were transfected in T-25 flask as discussed above. Forty-eight hours after transfection, the cells were seeded in 96-well plates (5000 cells/well). After 24-hours, the cells were exposed to no treatment or either 10 Gy radiation (RS-2000, Rad Source Technologies, Inc., Buford, GA, USA) or anticancer drugs carmustine (i.e., BCNU™ or BiCNU™) (100 μM), Doxorubicin (0.1 μM) and Topotecan (0.2 μM). After 24 hours, the media and treatments were removed and replaced with fresh media and cultured for 48 hours. The percentage of viable cells was determined using MTT assay (Norouzi et al, 2020).

macrophage cells (ANA-1) = test: Cell viability/proliferation MTT assay, ANA-1; type: cell-based, murine; details: 0.1 μM
Description: as §1

Sequence of SAT1 (Homo sapiens, UniProt P21673) (P21673 whole entry): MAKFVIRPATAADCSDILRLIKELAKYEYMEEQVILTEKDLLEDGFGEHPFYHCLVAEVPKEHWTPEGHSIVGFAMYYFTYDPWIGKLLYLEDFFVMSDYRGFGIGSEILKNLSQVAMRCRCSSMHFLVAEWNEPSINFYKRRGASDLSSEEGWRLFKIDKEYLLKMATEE

BBB permeability (BBB; from blood to the brain): able to cross
SMILES: NC12CC3CC(CC(C3)C1)C2 [amantadine]

BBB permeability (BBB): able to cross | BBB permeability relative to amantadine (BBB): slightly more permeable
SMILES: CC(N)C12CC3CC(CC(C3)C1)C2 (stereo not drawn) [rimantadine]

More lines, now with the values behind:

SMILES: CC(=O)NC12CC3CC(CC(C3)C1)C2 [Ac-amantadine, acetylated-amantadine]
earliest detection after induction (SAT1 [1]): 5 min | earliest detection after induction, in some cases (SAT1 [1]): 3 min | BBB permeability (BBB; from the brain to blood): able to cross the BBB from the brain to blood efficiently

SMILES: CC(=O)NC(C)C12CC3CC(CC(C3)C1)C2 (stereo not drawn) [Ac-rimantadine, acetylated-rimantadine]
earliest detection after induction (SAT1 [1]): 5 min | earliest detection after induction, in some cases (SAT1 [1]): 3 min | BBB permeability (BBB): able to cross the BBB from the brain to blood efficiently

SMILES: CCNCCCNCCCNCCCNCC [DENSPM, N(1),N(11)-diethylnorspermine]
SAT1 gene and protein expression (SAT1 [2]): enhanced | NAT1 gene and protein expression levels (NAT1): did not significantly change | NAT2 gene and protein expression levels (NAT2): did not significantly change

SMILES: COc1cccc2c1C(=O)c1c(O)c3c(c(O)c1C2=O)C[C@@](O)(C(=O)CO)C[C@@H]3O[C@H]1C[C@H](N)[C@H](O)[C@H](C)O1 [DOX, Doxorubicin]
cell viabilities/proliferation (U251 glioblastoma cells): lowest | sensitivity of cells to treatment (macrophage cells (ANA-1)): particularly sensitive

SMILES: CC[C@@]1(O)C(=O)OCc2c1cc1n(c2=O)Cc2cc3c(CN(C)C)c(O)ccc3nc2-1 [TOPO, Topotecan]
cell viabilities/proliferation (U251 glioblastoma cells): lowest

— patent publication US20250339546A1, “GLIOBLASTOMA TUMOR GROWTH INHIBITON BY SAT1 KNOCKDOWN” (BIOMARK CANCER SYSTEMS, INC., priority 2021, published 2025)
